Measurements from patent US11744830B2, “Ameliorative agent for cytokine release syndrome and so on” (TORII PHARMACEUTICAL CO., LTD., priority 2018, dated 2023).
Structures can show the parent of a compound that is named as a salt.

Assays:
[1] = test system: IFN-γ production from CD8^+ T cells; experiment: T-cell stimulation bead-induced IFN-γ production in CD8^+ T cells; assay type: cell-based, human; settings: CD3/CD28 stimulation, 3 days
Description: Cryopreserved PBMCs were quickly thawed in a 37° C. thermostat and added to a tube containing medium. After centrifugation (at room temperature at 300 g for 10 minutes) to remove the supernatant, the cells were suspended in the medium, a portion of which was then mixed with a trypan blue solution to count the number of viable cells. The cell suspension was centrifuged (at room temperature at 300 g for 10 minutes) to remove the supernatant, followed by addition of MACS Buffer in a volume of 80 μL per 1×10^7 cells to suspend the cells, to which Human CD8 MicroBeads (20 μL) were further added. After being allowed to stand on ice for 15 minutes, the cell suspension was diluted with MACS Buffer (2 mL) and centrifuged (at room temperature at 300 g for 10 minutes) to remove the supernatant.
MACS Buffer (500 μL) was added to the tube, and the cells were suspended and then applied to a separatory column to separate CD8^+ cells. The CD8^+ cell fraction was diluted to 15 mL with the medium and then centrifuged (at room temperature at 300 g for 10 minutes). The supernatant was removed and the cells were suspended in the medium (1 mL), followed by counting the number of viable cells. The cell suspension adjusted with the medium to 1×10^6 cells/mL was seeded in a 96-well plate in a volume of 100 μL/well (1×10^5 cells/well) and allowed to stand in a CO2 incubator for 1 to 2 hours.
The collected culture supernatants were quantified for IFN-γ using Human IFN-γ DuoSet ELISA.

IL-18 production = experiment: CRS toxicity evaluation system using CAR-T cells: IL-18; assay type: cell-based; settings: Homo sapiens, Monocyte, target cells and monocytes, 72 hours, reference data because of low production
Description: (§1) The supernatants were collected at 72 hours after the initiation of culture, and various cytokines in each supernatant were measured by FACS multiplex assay.

[2] = test system: IFN-γ production in CD4^+ T cell-depleted PBMCs; experiment: T-cell stimulation bead- and LPS stimulation-induced CRS toxicity evaluation system in CD4^+ T cell-depleted PBMCs: IFN-γ; assay type: cell-based; settings: Homo sapiens, 72 h, CD3/CD28 + LPS, 3 days
Description: Cryopreserved human PBMCs were quickly thawed in a 37° C. thermostat and added to a tube containing medium. After centrifugation (at room temperature at 300 g for 10 minutes) to remove the supernatant, the cells were suspended again in the medium (10 mL), followed by counting the number of viable cells. The remainder of the cell suspension was centrifuged (at room temperature at 300 g for 10 minutes) to remove the supernatant, followed by addition of MACS Buffer in a volume of 80 μL and Human CD4 MicroBeads in a volume of 20 μL per 1×10^7 cells to suspend the cells. After being allowed to stand on ice for 15 minutes, the cell suspension was diluted with MACS Buffer (2 mL) and centrifuged (at room temperature at 300 g for 10 minutes) to remove the supernatant. MACS Buffer (500 μL) was added to the tube, and the cells were suspended and then applied to a separatory column to separate CD4^− cells (a pass-through fraction of CD4^+ cells). The CD4^− cell fraction was diluted to 15 mL with the medium and then centrifuged (at room temperature at 300 g for 10 minutes) to remove the supernatant, and the cells were then suspended again in the medium (1 mL), followed by counting the number of viable cells. […]
The collected culture supernatants were quantified for IFN-γ and IL-6 using Human IFN-γ DuoSet ELISA and Human IL-6 DuoSet ELISA.

IL-6 production = experiment: CRS toxicity evaluation system using CAR-T cells: IL-6; assay type: cell-based, human; settings: for IC50: Homo sapiens, Monocyte, CAR-T cells, target cells and monocytes, 72 hours
Description: as §1

[3] = test system: killer activity of CAR-T cells; experiment: Killer activity of CAR-T cells (CAR-T cells, target cells and CD14^+ cells, luciferase); assay type: cell-based, human; settings: 2 days
From the text: FMC63 scFv, the hinge, transmembrane and cytoplasmic domains of CD28 and the cytoplasmic domain of CD3-ζ were used to construct anti-CD19 CAR on the basis of the method of Kochenderfer, et al.^15). The sequence was obtained from GenBank (HM852952) and an IDT codon optimization tool (http://sg.igtdna.com/CodonOpt) was used to remove BamHI recognition sequences within FMC63. The optimized FMC63-28z sequence was chemically synthesized and amplified by polymerase chain reaction (PCR) with the following primer set.
The PCR product was inserted into the multicloning site (EcoRI and BamHI) of lentivirus plasmid CSII-EF-MCS-2A-eGFP by using an In-Fusion HD cloning kit to obtain CSII-EF-FMC63-28z-2A-eGFP. To prepare a lentivirus vector, CSII-EF-FMC63-28z-2A-eGFP and a packaging plasmid (pMDLg/p.RRE, pRSV-rev and pMD.G) were co-transfected into Lenti-X293T cells. The prepared lentivirus vector was infected into peripheral blood mononuclear cells stimulated with anti-CD3 antibody, anti-CD28 antibody and IL-2, followed by FACS sorting to obtain a CD3-positive and eGFP-positive fraction as CAR-T cells.
On the basis of the method of Kochenderfer, et al.^15), the open reading frame of human CD19 was synthesized and amplified by PCR with the following primers. […]
Subsequently, luciferase activity was determined by detection of emission intensity with an EnSpire 2300.

| IC50 [1] | Structure (SMILES) | IC50 ([1]; Homo sapiens, T-cell, 72 h) | IC50 (IL-18 production) | IC50 [2] | IC50 (IL-6 production) | effect on the killer activity of CAR-T cells [3] | suppressive effect on IL-6 production (IL-6 production; CRS toxicity evaluation system using CAR-T cells) |
| --- | --- | --- | --- | --- | --- | --- | --- |
|  | CCOC(=O)[C@H](Cc1ccccc1)NC(=O)c1cc(Cl)c(OCCN2CCN(C)CC2)c(Cl)c1O [JTE-607, (−)-ethyl N-{3,5-dichloro-2-hydroxy-4-[2-(4-methylpiperazin-1-yl)ethoxy]benzoyl}-L-phenylalaninate dihydrochloride] | > 300 nM | 871 nM | 80.9 nM | 188 nM | did not affect |  |
| 149 nM | C[C@]12C=CC(=O)C=C1CC[C@@H]1[C@@H]2[C@@H](O)C[C@@]2(C)[C@H]1CC[C@]2(O)C(=O)CO [PSL, Prednisolone] | 149 nM | > 100000 nM | 42 nM | > 10000 nM | suppressive effect on the killer activity of CAR-T cells in a concentration-dependent manner | no suppressive effect |
